Peptide text beside a SMILES is read from it.
What was measured:
[1] = system: dendritic spines of the hippocampal neurons; test: dendritic spine morphology and density in hippocampus, C57BL/6 mice; assay type: in vivo; details: 14 days' treatment
Protocol: (§1) C57/BL6 adult mice were treated for 14 days with daily intraperitoneal injection of saline solution or peptides at a dose of 3 nmol/g (6-10 animals per experimental group). The animals were maintained in an enclosure at 25 ± 2 °C with an alternating light/dark cycle of 12 hours and had free access to water and food in the form of pellets (standard diet).
For the dendritic spine analysis, the protocol used is the one previously described by Kim et al, and envisages the use of DilDye lipophilic tracer (Invitrogen) to allow the dendritic spines to be viewed under the confocal microscope. The analysis of the dimensions and morphology of the spines was performed with ImageJ software.
The spines were classified, based on their morphology, into three different categories: thin, stubby (without a well-defined "neck") and mushroom shaped. To evaluate the possible effect induced by PEP3 on the spine morphology, two animals for each experimental group were perfused after 14 days of treatment and the brain was post-fixed in PFA and cut with a vibratome. To view the dendritic spines the lipophilic tracer DilDye was used. From the images acquired from the confocal microscope the number, length and width of the head of the dendritic spines of the hippocampal neurons were measured.

[2] = body weight and food intake during 14 days' treatment; assay type: in vivo; details: C57BL/6 mice, daily intraperitoneal 3 nmol/g
Protocol: as §1
For the entire duration of the treatment, on a daily basis, the weight and food intake of each animal were monitored and recorded, in order to evaluate any changes caused by the treatment. 24 hours after the last injection the mice were anaesthetized, and then the blood was taken through cardiac puncture, whereas the brain and liver of the animal were rapidly dissected to perform biochemical or immunohistological analyses.
The body weight and food intake were monitored and recorded on a daily basis.

ADAM10/AP2 complex [3] = molecular target: T1, ADAM10/AP2 complex (Rattus norvegicus, UniProt P62944); test: co-immunoprecipitation of ADAM10 with AP2 subunits in primary cultures of hippocampal neurons; assay type: cell-based
T1 construct: endogenous in cells; host or cells: primary hippocampal neurons of rat embryos, DIV14
Protocol: The primary cultures were prepared from hippocampi of rat embryos as described in [20]. The cultures were grown in media containing Neurobasal (Life Technologies), B27 2% (Life Technologies), GlutaMAX 1% (Life Technologies) and Penicillin/Streptomycin 1% (Pen/Strep; Life Technologies), a 37 °C with 95% humidity and 5% CO2 for 14 days. The cells were treated by diluting the peptides in the complete growth medium, at a final concentration of 1 µM. The treatment was performed for 30 minutes at 37°C, then the neurons were lysed.
(§2) For the co-immunoprecipitation experiments, aliquots of 40-100 µg of lysate were incubated at 4°C in RIA 1X buffer (NaCl 200 mM, EDTA 10 mM, Na2HPO4 10 mM, Nonidet P-40, 0.5% and 0.1% SDS) in a final volume of 150 µl with 1-2 µg of antibody. The following day the protein complex A/G (Santa Cruz Biotechnology) was added, conjugated with agarose marbles, and the incubation was continued for 2 hours. After three washes with RIA buffer the samples were loaded onto SDS-PAGE and analysed through Western Blot.
(§3) The quantization of the Western Blot analyses was performed through an image analysis program (ImageLab -BioRad). The levels of proteins were expressed as optical density (OD) related to the different measurements and were normalized on respective tubulin levels.
After 30 minutes, the cells were processed and the cell lysate was used for performing the co-IP analyses.

[4] = Novel Object Recognition Test (NORT), C57BL/6 mice; assay type: in vivo; details: 14 days' treatment
Protocol: as §1
After 14 days of treatment the animals were subjected to the Novel Object Recognition Test (NORT). Such test is structured in three phases: habituation, familiarization and testing. In the first phase, the animal is placed in an empty arena and left free to explore the environment for 5 minutes. The day after, during the familiarization phase, the animal is placed in the same arena in the presence of two objects, identical in shape and size, for 10 minutes. Then the time spent by the animal exploring the individual object is recorded. On the third day, the animal is placed in the area in the presence of an identical object to that used in the familiarization phase and a new one. In this phase the difference in time spent by the animal exploring the familiar object and the new object is evaluated. […] In both phases of the test, the objects are positioned symmetrically and opposite inside the arena, and all the sessions are recorded with the aid of a video camera. […]

[5] = system: T2, ADAM10/AP2 complex (Rattus norvegicus); test: co-immunoprecipitation of ADAM10 with AP2 (α-adaptin) in acute hippocampal slices; assay type: cell-based; details: 10 µM, 30 min
T2 construct: endogenous in cells; host or cells: primary hippocampal neurons of rat embryos, DIV14
Protocol: (§4) The acute hippocampal slices were obtained from rat brain. After carefully removing the meninges, the hippocampus was isolated and dissected using the McIlwain tissue chopper. The hippocampal slices were then transferred into supports containing Krebs buffer, in the presence of a constant flow of 95% O2 and 5% CO2 5% (v/v). The acute slices were kept for 45 min at ambient temperature before proceeding with treatment with the peptide.
(§5) For the treatments of the acute hippocampal slices, all the peptides were diluted in Krebs buffer at a concentration of 10µM. The treatments were performed for 30 minutes and subsequently the sample was immediately frozen.
as §2, §3
(§6) The samples were then processed, and the total homogenate was used to evaluate the interaction levels between ADAM10 and the complex AP2. The co-immunoprecipitation experiment (co-IP), performed using an anti-ADAM10 antibody, made it possible to verify that two of the three peptides (PEP2 (SEQ ID NO:2) and PEP3 (SEQ ID NO:1)) were able to interfere with the interaction between ADAM10 and α-adaptin, one of the subunits that constitutes the complex AP2 (Figure 1A).

ADAM10/AP2 complex [6] = molecular target: T1, ADAM10/AP2 complex; test: as above; assay type: cell-based; details: 10 µM, 30 minutes
Protocol: as §4, §5, §2, §3, §6

[7] = system: GFAP and Iba-1 positive cells; test: neuro-inflammation: GFAP and Iba-1 positive cells in hippocampus; assay type: in vivo, mice; details: 5 fields, 14 days' treatment
Protocol: as §1
After the sacrifice of the treated animal, a portion of liver and a brain hemisphere were fixed in 10% formalin for 48 hours, and included in paraffin. From each block of paraffin, serial sections 5/6µm thick were obtained. The sections were then stained with haematoxylin-eosin or processed through immunohistochemistry.
Subsequently, to evaluate the presence of neuro-inflammation, 5 different fields of the hippocampus were considered to verify any presence of GFAP and Iba-1 positive cells.

[8] = primary cultures of neurons, 1µM, 30 min
[9] = primary hippocampal neurons DIV 14, 1 µM, 30 minutes

T1 sequence (P18484 whole entry): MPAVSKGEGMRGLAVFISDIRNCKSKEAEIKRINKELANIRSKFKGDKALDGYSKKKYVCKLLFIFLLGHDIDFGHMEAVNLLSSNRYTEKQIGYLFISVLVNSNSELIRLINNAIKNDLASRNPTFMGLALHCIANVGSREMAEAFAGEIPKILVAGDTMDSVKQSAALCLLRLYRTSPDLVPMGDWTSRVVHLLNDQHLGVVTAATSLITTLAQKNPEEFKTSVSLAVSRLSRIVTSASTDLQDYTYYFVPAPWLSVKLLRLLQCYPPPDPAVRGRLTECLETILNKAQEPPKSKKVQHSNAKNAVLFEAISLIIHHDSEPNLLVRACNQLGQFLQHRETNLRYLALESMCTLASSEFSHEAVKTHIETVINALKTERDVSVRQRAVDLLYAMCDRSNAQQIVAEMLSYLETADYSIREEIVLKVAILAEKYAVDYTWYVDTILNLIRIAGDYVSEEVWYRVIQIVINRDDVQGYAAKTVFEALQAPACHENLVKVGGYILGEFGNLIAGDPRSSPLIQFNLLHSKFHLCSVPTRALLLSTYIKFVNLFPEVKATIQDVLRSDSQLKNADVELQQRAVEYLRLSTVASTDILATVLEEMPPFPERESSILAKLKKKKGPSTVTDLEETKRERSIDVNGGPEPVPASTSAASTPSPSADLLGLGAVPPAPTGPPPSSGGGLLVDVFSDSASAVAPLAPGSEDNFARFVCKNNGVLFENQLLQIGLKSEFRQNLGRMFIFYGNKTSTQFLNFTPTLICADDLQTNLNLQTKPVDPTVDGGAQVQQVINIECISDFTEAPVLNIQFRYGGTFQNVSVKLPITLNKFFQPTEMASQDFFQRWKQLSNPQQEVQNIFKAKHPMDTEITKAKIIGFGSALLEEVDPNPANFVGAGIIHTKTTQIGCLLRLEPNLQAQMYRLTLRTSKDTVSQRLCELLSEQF
T1 sequence (P62744 whole entry, further chain): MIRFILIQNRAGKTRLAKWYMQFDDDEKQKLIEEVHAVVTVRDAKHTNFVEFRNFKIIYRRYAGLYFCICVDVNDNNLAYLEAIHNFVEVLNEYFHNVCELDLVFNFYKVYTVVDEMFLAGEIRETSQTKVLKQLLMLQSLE
T1 sequence (P84092 whole entry, further chain): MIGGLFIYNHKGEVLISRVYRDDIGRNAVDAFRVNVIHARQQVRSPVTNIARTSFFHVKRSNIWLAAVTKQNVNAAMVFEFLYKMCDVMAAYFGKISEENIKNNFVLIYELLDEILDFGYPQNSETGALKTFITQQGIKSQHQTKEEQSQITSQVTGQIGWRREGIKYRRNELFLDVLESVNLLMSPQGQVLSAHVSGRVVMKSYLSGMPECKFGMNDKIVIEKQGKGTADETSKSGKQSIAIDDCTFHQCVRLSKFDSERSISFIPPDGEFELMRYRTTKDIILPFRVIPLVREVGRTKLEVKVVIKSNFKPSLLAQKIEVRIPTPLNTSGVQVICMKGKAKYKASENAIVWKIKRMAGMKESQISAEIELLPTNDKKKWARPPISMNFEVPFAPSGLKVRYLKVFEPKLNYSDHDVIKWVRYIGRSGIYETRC
T1 sequence (P62944 whole entry): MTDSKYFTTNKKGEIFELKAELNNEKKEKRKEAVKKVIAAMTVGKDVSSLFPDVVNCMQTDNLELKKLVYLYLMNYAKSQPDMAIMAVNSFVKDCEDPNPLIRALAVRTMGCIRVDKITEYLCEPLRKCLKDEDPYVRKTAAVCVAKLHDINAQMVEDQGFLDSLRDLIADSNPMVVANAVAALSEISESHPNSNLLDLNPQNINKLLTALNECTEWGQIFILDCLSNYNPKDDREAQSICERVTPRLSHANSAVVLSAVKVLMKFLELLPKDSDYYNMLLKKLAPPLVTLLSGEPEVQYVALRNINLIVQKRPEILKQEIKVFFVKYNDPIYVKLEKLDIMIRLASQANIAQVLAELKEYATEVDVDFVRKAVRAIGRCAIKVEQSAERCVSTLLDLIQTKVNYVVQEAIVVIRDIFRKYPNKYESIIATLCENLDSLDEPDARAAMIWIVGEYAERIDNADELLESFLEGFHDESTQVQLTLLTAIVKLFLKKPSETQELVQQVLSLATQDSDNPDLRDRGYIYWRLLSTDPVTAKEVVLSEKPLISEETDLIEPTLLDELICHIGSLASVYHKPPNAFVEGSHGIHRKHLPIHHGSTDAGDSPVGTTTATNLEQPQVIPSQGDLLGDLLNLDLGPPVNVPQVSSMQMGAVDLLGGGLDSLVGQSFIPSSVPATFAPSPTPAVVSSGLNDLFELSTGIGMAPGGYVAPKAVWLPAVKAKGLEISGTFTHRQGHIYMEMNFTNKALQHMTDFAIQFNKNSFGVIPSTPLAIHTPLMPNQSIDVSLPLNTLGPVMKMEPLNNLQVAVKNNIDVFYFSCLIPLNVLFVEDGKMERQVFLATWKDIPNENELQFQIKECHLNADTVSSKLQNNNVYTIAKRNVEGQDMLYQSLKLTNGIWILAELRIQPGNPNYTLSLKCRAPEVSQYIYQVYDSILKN
T2 sequence (P18484 whole entry): as the sequence (P18484 whole entry) above
T2 sequence (P62744 whole entry, further chain): as the sequence (P62744 whole entry, further chain) above
T2 sequence (P84092 whole entry, further chain): as the sequence (P84092 whole entry, further chain) above
T2 sequence (P62944 whole entry, further chain): as the sequence (P62944 whole entry) above

SMILES: N=C(N)NCCC[C@H](NC(=O)CNC(=O)[C@@H](N)Cc1ccc(O)cc1)C(=O)N[C@@H](CCCCN)C(=O)N[C@@H](CCCCN)C(=O)N[C@@H](CCCNC(=N)N)C(=O)N[C@@H](CCCNC(=N)N)C(=O)N[C@@H](CCC(N)=O)C(=O)N[C@@H](CCCNC(=N)N)C(=O)N[C@@H](CCCNC(=N)N)C(=O)N[C@@H](CCCNC(=N)N)C(=O)NCC(=O)NCC(=O)N[C@@H](CO)C(=O)NCC(=O)N[C@@H](CCC(N)=O)C(=O)N1CCC[C@H]1C(=O)N1CCC[C@H]1C(=O)N[C@@H](CCCNC(=N)N)C(=O)N[C@@H](CCC(N)=O)C(=O)N[C@@H](CCCNC(=N)N)C(=O)N1CCC[C@H]1C(=O)N[C@@H](CCCNC(=N)N)C(=O)NCC(=O)O [PEP3] (H-YGRKKRRQRRRGGSGQPPRQRPRG-OH)
- density of the dendritic spines [1]: 10.30±1.11 n. of spines/10µm
- length of mushroom shaped spines [1]: 0.73±0.02
- length of the spines [1]: 0.75±0.02 µm
- percentage of mushroom shaped spines [1]: 28.83 ± 2.18%
- percentage of stubby spines [1]: 45.25 ± 2.03%
- percentage of thin spines [1]: 25.92 ± 1.68%
- width of the head of spines [1]: 0.75±0.01 µm
- food intake (ratio daily food intake / mean body weight) [2]: 97.09±2.18%
- PEP/inPEP OD, ADAM10/AP2 complex, µ2 (ADAM10/AP2 complex [3]; [8]): 22.43 ± 1.25%
- PEP/inPEP OD, ADAM10/AP2 complex, α-adaptin (ADAM10/AP2 complex [3]; [8]): 10.84 ± 5.61%
- reduction in the levels of interaction between ADAM10 and the complex AP2, subunit µ2 (ADAM10/AP2 complex [3]; [9]): 78%
- reduction in the levels of interaction between ADAM10 and the complex AP2, subunit α-adaptin (ADAM10/AP2 complex [3]; [9]): 89%
- time exploring the new object [4]: 63.52 ± 4.69%
- PEP/inPEP ratio of optical density (OD), ADAM10/AP2 complex (α-adaptin) [5]: 37.40 ± 21.76%
- reduction of the interaction between ADAM10 and α-adaptin (ADAM10/AP2 complex [6]): 62.6%
- number of GFAP positive cells [7]: 37.17±3.54
- number of Iba-1 positive cells [7]: 7.33±1.63
